Laboratory results as given in patent publication US11939319B2, “Pyridinyl and pyrazinyl-(asa)indolsulfonamides” (UCB Pharma GmbH, priority 2018, dated 2024).

biological target: GPR17 (Homo sapiens, UniProt Q13304); assay: cAMP accumulation functional assay (HTRF) in CHO hGPR17 cells; type: cell-based; design: host or cells: Flp-In T-REx CHO cells, expression induced with doxycycline; settings: Schild analysis against MDL29,951, 5 μM forskolin, activity range, read-out: cAMP assay pA2 (converted)
Sequence (Q13304 29-367 limits assumed): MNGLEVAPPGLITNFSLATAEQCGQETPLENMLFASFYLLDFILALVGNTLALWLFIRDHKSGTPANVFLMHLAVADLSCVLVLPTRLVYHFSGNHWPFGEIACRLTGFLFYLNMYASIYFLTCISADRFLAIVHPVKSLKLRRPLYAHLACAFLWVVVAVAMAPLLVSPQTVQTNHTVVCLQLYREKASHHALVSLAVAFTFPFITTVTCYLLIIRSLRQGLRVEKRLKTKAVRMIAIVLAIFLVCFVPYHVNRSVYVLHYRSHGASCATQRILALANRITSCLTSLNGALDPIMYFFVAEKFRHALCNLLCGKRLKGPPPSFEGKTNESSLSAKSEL
Experimental: Flp-In T-REx CHO cells stably expressing human GPR17 receptor (CHO hGPR17) from Evi Kostenis' lab (Bonn University, Germany) were cultured at 37° C. in a humidified atmosphere of 5% CO2. Cells were grown in DMEM with Nutrient Mixture F-12 supplemented with hygromycin B (500 μg/ml) and blasticidin (30 μg/ml). Expression from the Flp-In locus was induced by treatment with doxycycline (1 μg/ml) for 16-20 h prior assays.
GPR17 activation can also recruit Gi-type G-protein signaling, resulting in a decrease of intracellular cyclic adenosine monophosphate (cAMP). Intracellular cAMP changes can be measured using the HTRF cAMP dynamic assay kit from CisBio (Codolet, France). Using homogenous time-resolved fluorescence technology (HTRF), the assay is based on competition between native cAMP produced by cells and cAMP labelled with the dye d2. The tracer binding was determined by an anti-cAMP antibody labeled with cryptate.
CHO hGPR17 were detached with PBS containing EDTA and dispatched in black 384-well plates with 5,000 cells per well. Cells were first incubated for 30 minutes at room temperature in HBSS Hepes (pH 7.4) containing vehicle or varying concentrations of test GPR17 antagonist/inverse agonist compounds. Then, a dose response curve of MDL29,951 GPR17 agonist (typically from 10^−5M to 10^−10M) was added on vehicle and on each test GPR17 antagonist/inverse agonist compound concentration in a final volume of 20 μL HBSS Hepes buffer (pH 7.4) containing 1% DMSO, 5 μM forskolin and 0.1 mM IBMX. After 60 minutes incubation at room temperature, the reaction is terminated and the cells lysed by adding the d2 detection reagent and the cryptate reagent in 10 μL lysis buffer each according to manufacturer's instructions. After 60 minutes incubation, changes in cAMP concentrations are measured according to manufacturer's instructions using an Envision plate reader with laser excitation. All incubations were performed in duplicate. Data was analyzed using GraphPad Prism software using the 4-parameter logistic equation to measure MDL29,951 pEC50s in absence and presence of GPR17 antagonist/inverse agonist test compounds. Dose ratio (DR) were plotted against antagonist concentrations and Schild analysis provided estimated affinity pA2 of GPR17 antagonist/inverse agonist test compounds.
The activities of the Example compounds tested are depicted in the table below. The activity ranges A, B and C refer to pA2 values in the cAMP assay as follows: “A”: pA2 6.5≤x<7.5, “B”: pA2 7.5≤x<8.5, “C”: 8.5≤pA2.

SMILES | Kb [nM]
COc1nc(OC(F)F)c(F)cc1NS(=O)(=O)c1c[nH]c2nc(Cl)ccc12 [Example I-22, 6-chloro-N-[6-(difluoromethoxy)-5-fluoro-2-methoxypyridin-3-yl]-1H-pyrrolo[2,3-b]pyridine-3-sulfonamide] | ≤ 3.16
COc1nc(Cl)ccc1NS(=O)(=O)c1c[nH]c2nc(C(F)F)ccc12 [Example I-28, N-(6-chloro-2-methoxypyridin-3-yl)-6-(difluoromethyl)-1H-pyrrolo[2,3-b]pyridine-3-sulfonamide] | 31.6 to 316
COc1nc(Cl)c(F)cc1NS(=O)(=O)c1c[nH]c2nc(C(F)F)ccc12 [Example I-29, N-(6-chloro-5-fluoro-2-methoxypyridin-3-yl)-6-(difluoromethyl)-1H-pyrrolo[2,3-b]pyridine-3-sulfonamide] | 3.16 to 31.6
O=S(=O)(Nc1cc(F)c(OCC(F)F)nc1F)c1c[nH]c2nc(C(F)F)ccc12 [Example I-30, N-[6-(2,2-difluoroethoxy)-2,5-difluoro-3-pyridyl]-6-(difluoromethyl)-1H-pyrrolo[2,3-b]pyridine-3-sulfonamide] | 31.6 to 316
COc1nc(Cl)ccc1NS(=O)(=O)c1c[nH]c2nc(Cl)ccc12 [Example I-35, 6-chloro-N-(6-chloro-2-methoxypyridin-3-yl)-1H-pyrrolo[2,3-b]pyridine-3-sulfonamide] | 31.6 to 316
COc1nc(OCCF)c(F)cc1NS(=O)(=O)c1c[nH]c2nc(Cl)ccc12 [Example I-36, 6-chloro-N-[5-fluoro-6-(2-fluoroethoxy)-2-methoxypyridin-3-yl]-1H-pyrrolo[2,3-b]pyridine-3-sulfonamide] | ≤ 3.16
O=S(=O)(Nc1cc(F)c(C2CC2)nc1F)c1c[nH]c2cc(Cl)ccc12 [Example I-41, 6-chloro-N-(6-cyclopropyl-2,5-difluoropyridin-3-yl)-1H-indole-3-sulfonamide] | 3.16 to 31.6
O=S(=O)(Nc1cc(F)c(OCC(F)F)nc1F)c1c[nH]c2nc(Cl)ccc12 [Example I-44, 6-chloro-N-[6-(2,2-difluoroethoxy)-2,5-difluoropyridin-3-yl]-1H-pyrrolo[2,3-b]pyridine-3-sulfonamide] | 31.6 to 316
COc1nc(OCC(F)F)ccc1NS(=O)(=O)c1c[nH]c2nc(Cl)ccc12 [Example I-45, 6-chloro-N-[6-(2,2-difluoroethoxy)-2-methoxypyridin-3-yl]-1H-pyrrolo[2,3-b]pyridine-3-sulfonamide] | 3.16 to 31.6
COc1nc(OCC(F)F)c(F)cc1NS(=O)(=O)c1c[nH]c2nc(Cl)ccc12 [Example I-46, 6-chloro-N-[6-(2,2-difluoroethoxy)-5-fluoro-2-methoxypyridin-3-yl]-1H-pyrrolo[2,3-b]pyridine-3-sulfonamide] | ≤ 3.16
O=S(=O)(Nc1cc(F)c(C2CC2)nc1F)c1c[nH]c2nc(Cl)ccc12 [Example I-47, 6-chloro-N-(6-cyclopropyl-2,5-difluoropyridin-3-yl)-1H-pyrrolo[2,3-b]pyridine-3-sulfonamide] | 3.16 to 31.6
COc1nc(OCCOC(F)F)c(F)cc1NS(=O)(=O)c1c[nH]c2nc(Cl)ccc12 [Example I-48, 6-chloro-N-[6-[2-(difluoromethoxy)ethoxy]-5-fluoro-2-methoxypyridin-3-yl]-1H-pyrrolo[2,3-b]pyridine-3-sulfonamide] | ≤ 3.16
COc1ncc(F)cc1NS(=O)(=O)c1c[nH]c2nc(Cl)ccc12 [Example I-49, 6-chloro-N-(5-fluoro-2-methoxypyridin-3-yl)-1H-pyrrolo[2,3-b]pyridine-3-sulfonamide] | 31.6 to 316
O=S(=O)(Nc1cc(F)c(OCC(F)F)nc1F)c1c[nH]c2cc(C(F)F)ccc12 [Example I-52, N-[6-(2,2-difluoroethoxy)-2,5-difluoropyridin-3-yl]-6-(difluoromethyl)-1H-indole-3-sulfonamide] | 3.16 to 31.6
COc1nc(OCC(F)F)ccc1NS(=O)(=O)c1c[nH]c2nc(C(F)F)ccc12 [Example I-53, N-[6-(2,2-difluoroethoxy)-2-methoxypyridin-3-yl]-6-(difluoromethyl)-1H-pyrrolo[2,3-b]pyridine-3-sulfonamide] | 3.16 to 31.6
COc1nc(OCC(F)F)c(F)cc1NS(=O)(=O)c1c[nH]c2nc(C(F)F)ccc12 [Example I-54, N-[6-(2,2-difluoroethoxy)-5-fluoro-2-methoxypyridin-3-yl]-6-(difluoromethyl)-1H-pyrrolo[2,3-b]pyridine-3-sulfonamide] | ≤ 3.16
COc1nc(OCCF)c(F)cc1NS(=O)(=O)c1c[nH]c2nc(C(F)F)ccc12 [Example I-55, 6-(difluoromethyl)-N-[5-fluoro-6-(2-fluoroethoxy)-2-methoxypyridin-3-yl]-1H-pyrrolo[2,3-b]pyridine-3-sulfonamide] | 3.16 to 31.6

Other lines, results leading:

Kb [nM] | SMILES
≤ 3.16 | COc1nc(OC(F)F)c(F)cc1NS(=O)(=O)c1c[nH]c2cc(Cl)ccc12 [Example I-9, 6-chloro-N-[6-(difluoromethoxy)-5-fluoro-2-methoxypyridin-3-yl]-1H-indole-3-sulfonamide]
≤ 3.16 | COc1nc(Cl)cnc1NS(=O)(=O)c1c[nH]c2cc(Cl)ccc12 [Example I-11, 6-chloro-N-(5-chloro-3-methoxypyrazin-2-yl)-1H-indole-3-sulfonamide]
≤ 3.16 | COc1nc(OCCF)c(F)cc1NS(=O)(=O)c1c[nH]c2cc(Cl)ccc12 [Example I-12, 6-chloro-N-[5-fluoro-6-(2-fluoroethoxy)-2-methoxypyridin-3-yl]-1H-indole-3-sulfonamide]
3.16 to 31.6 | COc1nc(OCCF)ccc1NS(=O)(=O)c1c[nH]c2cc(Cl)ccc12 [Example I-13, 6-chloro-N-[6-(2-fluoroethoxy)-2-methoxypyridin-3-yl]-1H-indole-3-sulfonamide]
≤ 3.16 | COc1nc(OC(F)F)c(F)cc1NS(=O)(=O)c1c[nH]c2cc(C(F)F)ccc12 [Example I-16, N-[6-(difluoromethoxy)-5-fluoro-2-methoxypyridin-3-yl]-6-(difluoromethyl)-1H-indole-3-sulfonamide]
31.6 to 316 | O=S(=O)(Nc1cnc(Cl)cc1Cl)c1c[nH]c2cc(Cl)ccc12 [Example I-26, 6-chloro-N-(4,6-dichloropyridin-3-yl)-1H-indole-3-sulfonamide]
31.6 to 316 | COc1nc(Cl)ccc1NS(=O)(=O)c1c[nH]c2cc(C(F)F)ccc12 [Example I-27, N-(6-chloro-2-methoxypyridin-3-yl)-6-(difluoromethyl)-1H-indole-3-sulfonamide]
3.16 to 31.6 | COc1nc(OC(F)F)ccc1NS(=O)(=O)c1c[nH]c2nc(Cl)ccc12 [Example I-37, 6-chloro-N-[6-(difluoromethoxy)-2-methoxy-3-pyridyl]-1H-pyrrolo[2,3-b]pyridine-3-sulfonamide]
≤ 3.16 | COc1nc(OCC(F)F)ccc1NS(=O)(=O)c1c[nH]c2cc(Cl)ccc12 [Example I-38, 6-chloro-N-[6-(2,2-difluoroethoxy)-2-methoxypyridin-3-yl]-1H-indole-3-sulfonamide]
3.16 to 31.6 | COc1ccc(NS(=O)(=O)c2c[nH]c3cc(Cl)ccc23)c(OCC(F)F)n1 [Example I-39, 6-chloro-N-[2-(2,2-difluoroethoxy)-6-methoxypyridin-3-yl]-1H-indole-3-sulfonamide]
3.16 to 31.6 | COc1cc(OC(F)F)ncc1NS(=O)(=O)c1c[nH]c2cc(Cl)ccc12 [Example I-40, 6-chloro-N-[6-(difluoromethoxy)-4-methoxypyridin-3-yl]-1H-indole-3-sulfonamide]
≤ 3.16 | COc1nc(OCC(F)F)c(F)cc1NS(=O)(=O)c1c[nH]c2cc(Cl)ccc12 [Example I-42, 6-chloro-N-[6-(2,2-difluoroethoxy)-5-fluoro-2-methoxypyridin-3-yl]-1H-indole-3-sulfonamide]
≤ 3.16 | COc1nc(OCCOC(F)F)c(F)cc1NS(=O)(=O)c1c[nH]c2cc(Cl)ccc12 [Example I-43, 6-chloro-N-[6-[2-(difluoromethoxy)ethoxy]-5-fluoro-2-methoxypyridin-3-yl]-1H-indole-3-sulfonamide]
≤ 3.16 | COc1nc(C2CC2)c(F)cc1NS(=O)(=O)c1c[nH]c2cc(Cl)ccc12 [Example I-50, 6-chloro-N-(6-cyclopropyl-5-fluoro-2-methoxypyridin-3-yl)-1H-indole-3-sulfonamide]
≤ 3.16 | COc1nc(OCC(F)F)c(F)cc1NS(=O)(=O)c1c[nH]c2cc(OC(F)F)ccc12 [Example I-51, N-[6-(2,2-difluoroethoxy)-5-fluoro-2-methoxypyridin-3-yl]-6-(difluoromethoxy)-1H-indole-3-sulfonamide]
